Numbers after ± are expanded uncertainties.
Experiment: excess molar enthalpy (molar enthalpy of mixing); xn = mol fraction of the nth substance listed
Details: 303.15 K, 101 kPa, Liquid

BrCBr [dibromomethane] + c1ccccc1
Details	excess molar enthalpy [kcal/mol]
x1 = 0.0931	0.00956 ± 0.000956
x1 = 0.253	0.0196 ± 0.00143
x1 = 0.3416	0.0241 ± 0.00143
x1 = 0.4618	0.0284 ± 0.00167
x1 = 0.5464	0.0318 ± 0.00167
x1 = 0.6705	0.0311 ± 0.00167
x1 = 0.7405	0.0304 ± 0.00167
x1 = 0.8394	0.0237 ± 0.00143
x1 = 0.9506	0.0098 ± 0.000956

BrCBr [dibromomethane] + O=C1CCCN1
Details	excess molar enthalpy [kcal/mol]
x1 = 0.0955	-0.0918 ± 0.00382
x1 = 0.151	-0.134 ± 0.00526
x1 = 0.2158	-0.177 ± 0.00669
x1 = 0.2999	-0.216 ± 0.00813
x1 = 0.4044	-0.246 ± 0.00908
x1 = 0.5247	-0.241 ± 0.00884
x1 = 0.613	-0.22 ± 0.00813
x1 = 0.7203	-0.174 ± 0.00669
x1 = 0.7913	-0.127 ± 0.00502
x1 = 0.8401	-0.0968 ± 0.00382
x1 = 0.9084	-0.0507 ± 0.00239

BrCBr [dibromomethane] + CO
Details	excess molar enthalpy [kcal/mol]
x1 = 0.1506	0.0433 ± 0.00406
x1 = 0.2779	0.0978 ± 0.00765
x1 = 0.3148	0.113 ± 0.00837
x1 = 0.4026	0.138 ± 0.01
x1 = 0.504	0.153 ± 0.011
x1 = 0.6195	0.169 ± 0.012
x1 = 0.7224	0.187 ± 0.0131
x1 = 0.921	0.154 ± 0.011
x1 = 0.9515	0.111 ± 0.00837
x1 = 0.9781	0.0583 ± 0.00502

BrCBr [dibromomethane] + C[S+](C)[O-]
Details	excess molar enthalpy [kcal/mol]
x1 = 0.062	-0.0507 ± 0.00239
x1 = 0.1162	-0.0856 ± 0.00359
x1 = 0.2682	-0.175 ± 0.00669
x1 = 0.3407	-0.201 ± 0.00741
x1 = 0.4342	-0.227 ± 0.00837
x1 = 0.503	-0.24 ± 0.00884
x1 = 0.5251	-0.242 ± 0.00884
x1 = 0.6466	-0.228 ± 0.00837
x1 = 0.7285	-0.202 ± 0.00765
x1 = 0.8234	-0.152 ± 0.00574
x1 = 0.8934	-0.103 ± 0.00406

Source: the NIST ThermoML archive (doi:10.1021/je9005882)
